Test results as given in patent US8362000B2, “Azetidinyl diamides as monoacylglycerol lipase inhibitors” (Janssen Pharmaceutica NV, priority 2009, dated 2013).
Numbering of substitutions follows the chain as printed. Where two headings read alike, the source gives them in different places.

Experiments:
[1] = molecular target: T1, purified wild type MGL (wt-MGLL 6H-11-313) (Homo sapiens, UniProt Q99685)
T1 sequence (Q99685 1-303): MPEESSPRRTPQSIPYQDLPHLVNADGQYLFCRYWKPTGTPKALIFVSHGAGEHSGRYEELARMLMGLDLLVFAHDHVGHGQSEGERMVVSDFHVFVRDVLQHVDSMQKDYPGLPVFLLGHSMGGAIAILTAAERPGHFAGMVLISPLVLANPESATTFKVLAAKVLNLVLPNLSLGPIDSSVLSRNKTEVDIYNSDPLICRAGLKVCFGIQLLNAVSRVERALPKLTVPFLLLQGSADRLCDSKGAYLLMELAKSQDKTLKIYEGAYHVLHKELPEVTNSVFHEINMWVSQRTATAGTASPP

[2] = molecular target: T2, mutant MGL (Homo sapiens, UniProt Q99685, L169S/L176S); assay: MGL ThermoFluor assay - mutant; type: binding
T2 sequence (Q99685 1-303 L169S/L176S): T1 sequence (Q99685 1-303) with L169S, L176S

[3] = molecular target: T3, MGL (Rattus norvegicus, UniProt Q8R431); assay: 2-AG accumulation assay in rat brain homogenate; type: biochemical; settings: rat brain homogenate, 2-AG accumulation as percent of vehicle; for 2-AG accumulation, % of vehicle control at 1 µM: compound 1 μM, read-out: Rat Brain 2AG % VehCntrl (%) @ 1 μM
T3 construct: one g rat brain was homogenized using a Polytron homogenizer; from tissue; host or cells: rat brain homogenate
T3 sequence (Q8R431 1-303): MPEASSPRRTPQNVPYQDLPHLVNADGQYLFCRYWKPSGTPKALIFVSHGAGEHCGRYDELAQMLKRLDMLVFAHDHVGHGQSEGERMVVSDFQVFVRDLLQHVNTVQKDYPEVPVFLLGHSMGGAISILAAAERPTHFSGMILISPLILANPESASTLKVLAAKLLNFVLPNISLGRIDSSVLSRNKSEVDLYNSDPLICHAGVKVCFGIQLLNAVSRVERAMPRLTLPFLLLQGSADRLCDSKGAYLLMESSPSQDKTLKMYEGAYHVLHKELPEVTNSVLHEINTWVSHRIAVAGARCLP

[4] = ThermoFluor concentration-response, read-out: MGL mutant ThermoFluor Kd
[5] = ThermoFluor thermal stability binding assay, read-out: MGL mutant ThermoFluor Kd
[6] = ThermoFluor, compound concentration measured by qNMR, read-out: MGL mutant ThermoFluor qKd (using qNMR conc.)
[7] = ThermoFluor, compound concentration measured by qNMR, read-out: MGL mutant ThermoFluor qKd (μM) (using qNMR conc.)

Row | SMILES | IC50 [1] [nM] | Kd [2, 4] [µM] | 2-AG accumulation, % of vehicle control at 1 µM [3] [%] | Kd [2, 5] [µM] | Kd [2, 6] [µM] | Kd [2, 7] [µM] | 2-AG accumulation, % of vehicle control at 0.1 µM ([3]; compound 0.1 μM, read-out: Rat Brain 2AG % VehCntrl (%) @ 0.1 μM) [%] | 2-AG accumulation, % of vehicle control at 10 µM ([3]; compound 10 μM, read-out: Rat Brain 2AG % VehCntrl (%) @ 10 μM) [%]
1 | O=C(c1ccc2c(cnn2-c2ccccc2)c1)N1CC(N2CCN(C(=O)c3cscn3)CC2)C1 [Cpd 1163, 1-Phenyl-5-({3-[4-(1,3-thiazol-4-ylcarbonyl)piperazin-1-yl]azetidin-1-yl}carbonyl)-1H-indazole] | 48 | 0.073 | 244 |  |  |  |  | 
2 | O=C(c1ccc(-c2cccc(C(F)(F)F)c2)cc1)N1CCN(C2CN(C(=O)c3ccc[nH]3)C2)CC1 [Cpd 1166, 1-[1-(1H-Pyrrol-2-ylcarbonyl)azetidin-3-yl]-4-{[3′-(trifluoromethyl)biphenyl-4-yl]carbonyl}piperazine] | 52 | 0.01 | 176 |  |  |  |  | 
3 | COc1ccc(C(=O)N2CC(N3CCN(C(=O)c4nccs4)CC3)C2)cc1-c1ccccc1 [Cpd 1168] | 53 | 0.067 | 780 |  |  |  |  | 
4 | Cn1nc(-c2cccc(F)c2)c2cc(C(=O)N3CC(N4CCN(C(=O)c5nccs5)CC4)C3)ccc21 [Cpd 1170] | 59 | 0.014 | 258 |  |  |  |  | 
5 | O=C(c1nccs1)N1CCN(C2CN(C(=O)c3cccc(-c4ccccc4)c3F)C2)CC1 [Cpd 1172] | 63 | 0.178 | 931 |  |  |  |  | 
6 | O=C(c1nccs1)N1CCN(C2CN(C(=O)c3cccc4oc(-c5ccccc5Cl)nc34)C2)CC1 [Cpd 1173] | 65 |  | 133 | 0.007 |  |  |  | 
7 | COc1ccc(-n2ccc3cc(C(=O)N4CC(N5CCN(C(=O)c6ccc[nH]6)CC5)C4)ccc32)cn1 [Cpd 1176, 1-(6-Methoxypyridin-3-yl)-5-({3-[4-(1H-pyrrol-2-ylcarbonyl)piperazin-1-yl]azetidin-1-yl}carbonyl)-1H-indole] | 70 |  | 378 |  | 0.161 |  |  | 
8 | NC(=O)c1cccc(-n2ccc3cc(C(=O)N4CC(N5CCN(C(=O)c6nccs6)CC5)C4)ccc32)c1 [Cpd 1177] | 63 |  | 895 |  |  | 0.088 |  | 
9 | O=C(c1ccc2nc(-c3ccc(F)c(F)c3)oc2c1)N1CC(N2CCN(C(=O)c3cscn3)CC2)C1 [Cpd 1178] | 71 |  | 292 |  |  | 0.238 |  | 
10 | O=C(c1ccc(-c2nc(-c3ccccc3)c(-c3ccccc3)[nH]2)cc1)N1CC(N2CCN(C(=O)c3nccs3)CC2)C1 [Cpd 1179] | 73 | 0.005 | 996 |  |  |  |  | 
11 | Cc1ccc(-n2ccc3cc(C(=O)N4CC(N5CCN(C(=O)c6ccc[nH]6)CC5)C4)ccc32)cn1 [Cpd 1181, 1-(6-Methylpyridin-3-yl)-5-({3-[4-(1H-pyrrol-2-ylcarbonyl)piperazin-1-yl]azetidin-1-yl}carbonyl)-1H-indole] | 77 |  | 288 |  | 0.278 |  |  | 
12 | N#Cc1ccccc1-n1ccc2cc(C(=O)N3CC(N4CCN(C(=O)c5cscn5)CC4)C3)ccc21 [Cpd 1182] | 79 |  | 547 |  |  | 0.21 |  | 
13 | O=C(c1cc(-c2cccc(F)c2)c2[nH]ccc2c1)N1CC(N2CCN(C(=O)c3nccs3)CC2)C1 [Cpd 1183] | 85 |  | 549 |  |  | 0.067 |  | 
14 | Cc1ccc(-n2ccc3cc(C(=O)N4CC(N5CCN(C(=O)C(F)(F)F)CC5)C4)ccc32)nc1 [Cpd 1184, 1-(5-Methylpyridin-2-yl)-5-({3-[4-(trifluoroacetyl)piperazin-1-yl]azetidin-1-yl}carbonyl)-1H-indole] | 86 |  | 401 |  | 0.244 |  |  | 
15 | O=C(c1cccc(-c2ccccc2C(F)(F)F)c1)N1CC(N2CCN(C(=O)c3cscn3)CC2)C1 [Cpd 1185] | 88 | 1.32 | 241 |  |  |  |  | 
16 | O=C(c1cccc(-c2cccc(C(F)(F)F)c2)c1)N1CC(N2CCN(C(=O)c3cscn3)CC2)C1 [Cpd 1188] | 94 | 0.855 | 187 |  |  |  |  | 
17 | O=C(c1nccs1)N1CCN(C2CN(C(=O)c3cccc4oc(-c5ccccc5)nc34)C2)CC1 [Cpd 1190] | 99 |  | 126 | 0.008 |  |  |  | 
18 | O=C(c1nccs1)N1CCN(C2CN(C(=O)c3cc(-c4ccccc4)ccc3Cl)C2)CC1 [Cpd 1200] | 151 | 0.5 | 231 |  |  |  |  | 
19 | O=C(c1ccc2c(ccn2-c2ncccn2)c1)N1CC(N2CCN(C(=O)c3cscn3)CC2)C1 [Cpd 1201, 1-Pyrimidin-2-yl-5-({3-[4-(1,3-thiazol-4-ylcarbonyl)piperazin-1-yl]azetidin-1-yl}carbonyl)-1H-indole] | 151 | 0.179 | 475 |  |  |  |  | 
20 | O=C(c1nccs1)N1CCN(C2CN(C(=O)c3cc(-c4ccccc4)ccc3F)C2)CC1 [Cpd 1208] | 190 | 1 | 212 |  |  |  |  | 
21 | Cc1c(C(=O)N2CC(N3CCN(C(=O)c4nccs4)CC3)C2)cccc1-c1ccccc1 [Cpd 1234] | 356 | 0.394 | 226 |  |  |  |  | 
22 | O=C(c1ccc(-c2ccccc2)cc1)N1CCN(C2CN(C(=O)c3ccns3)C2)CC1 [Cpd 1235, 1-(Biphenyl-4-ylcarbonyl)-4-[1-(isothiazol-5-ylcarbonyl)azetidin-3-yl]piperazine] | 360 | 0.124 | 100 |  |  |  |  | 
23 | O=C(c1ccc(-c2ccccc2)cc1)N1CCN(C2CN(C(=O)c3nccs3)C2)CC1 [Cpd 1236, 1-(Biphenyl-4-ylcarbonyl)-4-[1-(1,3-thiazol-2-ylcarbonyl)azetidin-3-yl]piperazine] | 390 | 0.031 | 167 |  |  |  |  | 
24 | COc1cc(C(=O)N2CC(N3CCN(C(=O)c4cscn4)CC3)C2)ccc1-c1ccccc1 [Cpd 1253] | 725 | 0.088 | 190 |  |  |  | 110 | 407
25 | O=C(c1cscn1)N1CCN(C2CN(C(=O)c3cccc4nc(-c5cccc(F)c5)oc34)C2)CC1 [Cpd 1254] | 765 |  | 187 | 0.1 |  |  |  | 
26 | O=C(c1cc(-c2ccccc2)cc(C(F)(F)F)c1)N1CC(N2CCN(C(=O)c3cscn3)CC2)C1 [Cpd 1259] | 847 | 0.667 | 159 |  |  |  |  | 
27 | COc1ccc(C(=O)N2CC(N3CCN(C(=O)c4cscn4)CC3)C2)cc1-c1ccccc1 [Cpd 1265] | 1050 | 0.66 | 192 |  |  |  |  | 
28 | O=C(c1cscn1)N1CCN(C2CN(C(=O)c3cccc4nc(-c5ccc(F)cc5)oc34)C2)CC1 [Cpd 1282] | 2070 |  | 128 | 0.2 |  |  |  | 
29 | O=C(c1ccc(-c2ccccc2)cc1)N1CCN(C2CN(C(=O)c3ncco3)C2)CC1 [Cpd 1283, 1-(Biphenyl-4-ylcarbonyl)-4-[1-(1,3-oxazol-2-ylcarbonyl)azetidin-3-yl]piperazine] | 2170 | 0.523 | 62 |  |  |  |  | 
